Source: patent US20240252670A1, “ANTIBODY DRUG CONJUGATE, PREPARATION METHOD THEREFOR AND APPLICATION THEREOF” (TSINGHUA UNIVERSITY, priority 2021, published 2024)

Tests used:
[1] = molecular target: T1, PD-L1 on MC38 cell surfaces (Mus musculus, UniProt Q9EP73); test: FACS detection of antigen-binding capacity on PD-L1 positive MC38 cells (FITC secondary antibody)
T1 construct: endogenous in cells; host or cells: MC38 cells
Description: MC38 cells were treated with anti-PD-L1 antibody, anti-PD-L1 THIOMAB and ADC HE-S2, and then stained with FITC-labeled goat anti-human secondary antibody; the FITC signal intensity on MC38 surfaces was analyzed by FACS technique detection. A. The histograms of different colors represent, from top to bottom, the fluorescence signals measured for the negative control (NC) group, the secondary antibody group, the anti-PD-L1 antibody group, the anti-PD-L1 THIOMAB group, and the ADC HE-S2 group, respectively. B. Mean fluorescence intensity (MFI) measured after treatment with different antibody-based drugs on MC38. NC group: the negative control only added with the isotype antibody, with no secondary antibody added for staining; secondary antibody group: the control group added with the isotype antibody and stained with fluorescent secondary antibody. […]
With PD-L1 positive MC38 as a platform, the inventors verified whether ADC HE-S2 and the gene-modified anti-PD-L1 THIOMAB retained the original antibody-antigen binding capacity by using a fluorescence activated cell sorting (FACS) technique. […] The stained MC38 cells were analyzed on a BD FACSAria™ III flow cytometer, and the strength of FITC fluorescence signals on MC38 cells treated with different antibody-based drugs was detected and compared, so as to characterize the affinity of ADC, THIOMAB and antibodies to PD-L1.

[2] = tested on: wild-type DC 2.4 cells and Cd274 knockout DC 2.4 cells; test: Internalization and selectivity in DC cells, IncuCyte intensity-time curves with FBS or mouse serum blocking; format: cell-based
Description: The total red object integrated intensity-time variation curves for anti-PD-L1 THIOMAB labeled with pHrodo™ red dye in the wild-type DC 2.4 cell line and the Cd274 knockout DC 2.4 cell line. […] After addition of labeled anti-PD-L1 antibody, incubation was performed for 30 minutes at 4° C. to allow complete binding of antigen and antibody. The internalization of the antibodies was then analyzed by using the IncuCyte® viable cell system. A. Cells were cultured in a culture medium containing 10% FBS. B. Cells were cultured in a culture medium containing 10% mouse serum. C. After 6 hours, high-definition phase images, red fluorescence images and combined images of DC 2.4 cells were collected by using the IncuCyte® viable cell system. Student's t test was used to compare significant differences between the groups, and p<0.0001 is represented by ****.
To verify this hypothesis, the inventors used 10% mouse serum and 10% FBS as blocking agents which were added to cell culture media in groups, respectively. Relative to FBS, murine IgG enriched in mouse serum could block Fcγ receptors on the surface of DC 2.4 more effectively, thereby inhibiting the antibody internalization process mediated by Fcγ receptors on DC cells. […]

[3] = tested on: PD-L1 negative Cd274 knockout DC 2.4 cells; test: Preliminary internalization experiment in DC cells (FACS, 10% FBS); format: cell-based, mouse; conditions: Cd274 knockout DC 2.4, 10% FBS, incubation 8 h, pHrodo red labeled antibody
Description: (§1) PD-L1 positive wild-type DC 2.4 cells and PD-L1 negative Cd274 knockout DC 2.4 cells were cultured in a 10% FBS culture medium, anti-PD-L1 THIOMAB labeled with pHrodo™ red dye was added after the cell state was stable, and the cells were incubated overnight. The intracellular red fluorescence intensity was then analyzed by FACS to characterize the internalization level of THIOMAB.
(§2) To verify internalization of anti-PD-L1 THIOMAB on DC cells, the inventors acquired two kinds of DC cells, which were Cd274 knockout DC 2.4 cells and wild-type DC 2.4 cells, from the teacher named Tang Haidong of the School of Pharmaceutical Sciences, Tsinghua University. The Cd274 gene was a PD-L1 encoding gene, and the knocked-out DC 2.4 could not express PD-L1 protein, so the first kind of cells was PD-L1 negative DC cells; while wild-type DC 2.4 could express PD-L1, so the second kind of cells was PD-L1 positive DC cells (as shown in FIG. 12). […]
(§3) In preliminary experiments, the inventors added 10% heat-inactivated fetal bovine serum (FBS) as a blocking agent to a culture medium of DC 2.4 cells according to a conventional procedure, and detected the red fluorescence signals in the cells by FACS after incubation for 8 h, and the results are shown in FIG. 13. […]

[4] = tested on: PD-L1 positive wild-type DC 2.4 cells; test: as above; format: cell-based, mouse; conditions: wild-type DC 2.4, 10% FBS, incubation 8 h, pHrodo red labeled antibody
Description: as §1, §2, §3

T1 sequence (Q9EP73 19-290): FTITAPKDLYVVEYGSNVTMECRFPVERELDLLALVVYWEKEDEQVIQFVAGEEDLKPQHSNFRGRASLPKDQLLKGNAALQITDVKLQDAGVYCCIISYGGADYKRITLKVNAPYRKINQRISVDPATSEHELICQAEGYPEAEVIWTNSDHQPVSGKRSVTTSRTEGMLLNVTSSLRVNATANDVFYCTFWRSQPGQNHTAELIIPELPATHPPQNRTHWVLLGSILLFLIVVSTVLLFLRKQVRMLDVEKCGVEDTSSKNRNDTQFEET

In the case of “anti-PD-L1 THIOMAB: mutant avelumab, light chain V205C (SEQ ID NO: 9), heavy chain SEQ ID NO: 4; pHrodo red labeled in internalization tests”, the “MFI compared with the natural anti-PD-L1 antibody (Student's t test)” value [1] is reported as “no significant difference”, the “fluorescence intensity variation curves, wild-type vs Cd274 knockout DC 2.4 cells” value ([2]; 10% FBS blocking) is reported as “very similar fluorescence intensity variation curves” and the “speed of increase in total red object integrated intensity in wild-type DC cells vs Cd274 knockout DC cells” value ([2]; 10% mouse serum blocking, p<0.0001) is reported as “significantly higher”. For the same substance, the “proportion of red fluorescence positive cells” value [3] was 52.9% and the “proportion of red fluorescence positive cells” value [4] was 53.6%.
